Test results as given in patent US20140323488A1, “DISUBSTITUTED TRIAZINE DIMERS FOR TREATMENT AND/OR PREVENTION OF INFECTIOUS DISEASES” (Universiteit Antwerpen, priority 2011, published 2014).

Columns and labels:
Format in all cases: cell-based
[1] = system: Human lung fibroblast MRC-5SV2 cells; test: Cytotoxicity assay on MRC-5SV2 cells (resazurin)
Method: Assays were performed in 96-well microtiter plates, each well containing 1×10^4 cells. […] After incubation for 72 h in a humidified atmosphere (37° C., 5% CO2) and addition of resazurin, the cell viability was assessed fluorimetrically (λex 550 nm, λem 590 nm). The results were expressed as % reduction in cell growth/viability compared to untreated control wells and IC50 values were determined. Tamoxifen was included as reference drug.

[2] = system: TZM-bl cells; test: WST-1 cytotoxicity assay; details: read-out: CC50 (50% cytotoxic concentration)
Text: The Water Soluble Tetrazolium-1 (WST-1) Cell Proliferation Assay is a colorimetric assay for the measurement of cell proliferation and viability. The assay is based on the cleavage of the tetrazolium salt WST-1 (4-[3-(4-iodophenyl)-2-(4-nitrophenyl)-2H-5-tetrazolio]-1,3-benzene disulfonate) to a formazan dye by a complex cellular mechanism. This bioreduction is largely dependent on the glycolytic production of NAD(P)H in viable cells. Therefore, the amount of formazan dye formed correlates directly to the number of viable cells in the culture, and can be quantified by measuring the absorbance at 450 nm in a multiwell plate reader. The greater the number of viable cells, the greater the amount of formazan dye produced following the addition of WST-1. Cytotoxicity of each compound was evaluated using this WST-1 viability assay, according to the manufacturer's instructions (Roche, Vilvoorde, Belgium).
Briefly, ten thousand TZM-bl cells were seeded in a 96-well plate and cultured for 2 days in the presence of a serial dilution of compound. After this 48 h exposure, Cell Proliferation Reagent, WST-1, was added and absorbance at 450 nm was quantified after 90 min using a microplate reader (BioRad, Tokio, Japan). Each compound was tested in three replicate wells and in at least two independent experiments.

[3] = biological target: Trypanosoma cruzi, Tulahuen CL2, β galactosidase strain; test: In vitro anti-Trypanosoma cruzi activity; details: read-out: T. cruz. IC50
Method: In Vitro Anti-Trypanosoma cruzi Activity
All cultures and assays were conducted under a humidified atmosphere (37° C., 5% CO2). […] The change in color was measured spectrophotometrically at 540 nm after 4 h at 37° C. […] Benznidazole was included as reference drug.

[4] = system: P. falciparum; test: In vitro anti-Plasmodium falciparum activity; details: read-out: Pf-K1 IC50
Method: In Vitro Anti-Plasmodium falciparum Activity
All cultures and assays were conducted under a humidified atmosphere (37° C., 4% CO2, 3% O2 and 93% N2) with the assay being an adaptation of the procedure described by Desjardins et al. (12). Assays were performed in 96-well microtiter plates, each well containing 10 μL of the watery extract dilutions together with 190 μL of the malaria parasite inoculum (1% parasitemia, 2% hematocrit). After incubation for 72 h at 37° C., the plates were frozen and stored at −20° C. Upon thawing, 20 μL of each well was transferred into another plate together with 100 μL Malstat® reagent and 20 μL of a 1/1 mixture of PES (phenazine ethosulphate, 2 mg/mL) and NBT (Nitro Blue Tetrazolium Grade III, 0.1 mg/ml). […] The results were expressed as % reduction in parasitemia compared to control wells. The extracts were tested using five 4-fold dilutions starting with 64 μg/mL. Chloroquine was included as reference drug.

[5] = system: HIV-1 BaL; test: TZM-bl assay, anti-HIV-1 activity; details: read-out: EC50 (50% effective concentration), anti-HIV-1 activity; TZM-bl cells
Method: The JC53-BL cell line, also known as the TZM-bl cell line (NIH AIDS Research and Reference Reagent Program, Germantown, USA), was used for the evaluation of anti-HIV activity. […] The resulting cell suspension was washed with an equivalent amount of TZM-bl medium and subsequently seeded in a T75 culture flask (Greiner Bio-One, Germany) at 10^6 cells in 20 mL medium.
The antiviral activity of the newly designed compounds was measured by pre-incubating ten thousand TZM-bl cells (at 10^5 cells/mL in culture medium supplemented with 30 μg/mL DEAE dextran) in a 96-well plate for 30 minutes at 37° C., 5% CO2 in the presence or absence of serial dilutions of the respective compound. Subsequently, 200 TCID50 of HIV-1 BaL was added to each well and cultures were incubated for 48 hours before quantifying luciferase activity, using a TriStar LB941 luminometer (Berthold Technologies GmbH & Co. KG, Bad Wildbad, Germany). Each condition was evaluated in triplicate wells and in at least two independent experiments. The antiviral activity of the compound was expressed as the percentage of viral inhibition compared to the untreated controls and subsequently plotted against the compound concentration.

[6] = system: T. rhodesiense (strain STIB-900); test: In vitro anti-Trypanosoma brucei rhodesiense activity; details: read-out: T. rhod. IC50
Method: In Vitro Anti-Trypanosoma brucei rhodesiense Activity
T. rhodesiense (strain STIB-900) was maintained in HMI-9-medium, supplemented with 10% heat-inactivated FBS. Assays were performed in 96-well microtiter plates, each well containing 10 μL of the extract dilution together with 190 μL of the parasite suspension (2×10^4 parasites/mL). After incubation in a humidified atmosphere (37° C., 5% CO2) for 72 h, resazurin was added for another 6 h and parasite growth was assessed fluorimetrically (λex 550 nm, λem 590 nm). […] Suramin was included as reference drug.

[7] = system: Trypanosoma b. brucei Squib 427; test: In vitro anti-Trypanosoma brucei brucei activity; details: read-out: T. bruc. IC50
Method: In Vitro Anti-Trypanosoma brucei brucei Activity:
After incubation in a humidified atmosphere (37° C., 5% CO2) for 72 h, resazurin was added for another 24 h and parasite growth was assessed fluorimetrically (λex 550 nm, λem 590 nm). […] Suramin was included as reference drug.

[8] = system: Leishmania infantum MHOM/MA (BE)/67; test: In vitro anti-Leishmania infantum activity; details: read-out: L. inf. IC50
Method: In Vitro Anti-Leishmania infantum Activity
Leishmania infantum MHOM/MA (BE)/67 was maintained in the golden hamster and spleen amastigotes were collected for preparing infection inocula. Primary peritoneal mouse macrophages were used as host cells and collected 48 h after peritoneal stimulation with a 2% potato starch suspension. […] After incubation for 120 h in a humidified atmosphere (37° C., 5% CO2), total parasite burdens were microscopically assessed after Giemsa staining. The results were expressed as % reduction in parasite burden compared to untreated control wells and IC50 values were calculated. The extracts were tested using five fourfold dilutions starting with 64 μg/mL.

Cc1cc(C)c(Nc2nc(Nc3ccc(C#N)cc3)nc(Nc3ccc(Nc4nc(Nc5ccc(C#N)cc5)nc(Nc5c(C)cc(C)cc5C)n4)cc3)n2)c(C)c1 [T12, 4,4′-((6,6′-(1,4-phenylenebis(azanediyl))bis(4-(mesitylamino)-1,3,5-triazine-6,2-diyl))bis(azanediyl))dibenzonitrile]
cytotoxicity in comparison with monomer I5 [1]: no cytotoxicity | IC50 ([1]; human cell line MRC5): > 64 µM | CC50 [2]: > 100 µM | IC50 [3]: > 64 µM | IC50 [4]: > 64 µM | EC50 [5]: 0.167 µM | IC50 [6]: 0.02 µM | IC50 [7]: 0.53 µM | IC50 [8]: > 64 µM
